The structures appear in SMILES notation. Values after ≈ are worked out from the molar mass of the structure shown.

A short description of data set [1]: Oral bioavailability in Balb/c mouse at 10 mg/kg. Conditions: in vivo. The format is ADME, organism-based.
For data set [2], the target named is 5-hydroxytryptamine receptor 1B (Homo sapiens) (UniProt P28222). Nature of the data set: Inhibition of 5-HT1B receptor (unknown origin) at 10 uM by CEREP analysis relative to control.
Data set [3] in a line: Stability in monkey hepatocytes measured for 75 mins. The data set is classed as ADME, cell-based, Macaca mulatta, Hepatocyte. The settings on record: rhesus monkey, 1.25 h.
Data set [4] addresses 3',5'-cyclic-AMP phosphodiesterase 4D (Homo sapiens) (UniProt Q08499). Nature of the data set: Inhibition of PDE4D2 (unknown origin) at 10 uM by CEREP analysis relative to control.
A short description of data set [5]: Stability in mouse hepatocytes measured for 127 mins. The format is ADME, cell-based, Hepatocyte. Conditions: 2.117 h.
The target in data set [6] is Sodium-dependent serotonin transporter (Homo sapiens) (UniProt P31645). Kind of data set: Inhibition of SERT (unknown origin) at 10 uM by CEREP analysis relative to control.
Sodium-dependent serotonin transporter (Homo sapiens), sequence (P31645 whole entry, looked up): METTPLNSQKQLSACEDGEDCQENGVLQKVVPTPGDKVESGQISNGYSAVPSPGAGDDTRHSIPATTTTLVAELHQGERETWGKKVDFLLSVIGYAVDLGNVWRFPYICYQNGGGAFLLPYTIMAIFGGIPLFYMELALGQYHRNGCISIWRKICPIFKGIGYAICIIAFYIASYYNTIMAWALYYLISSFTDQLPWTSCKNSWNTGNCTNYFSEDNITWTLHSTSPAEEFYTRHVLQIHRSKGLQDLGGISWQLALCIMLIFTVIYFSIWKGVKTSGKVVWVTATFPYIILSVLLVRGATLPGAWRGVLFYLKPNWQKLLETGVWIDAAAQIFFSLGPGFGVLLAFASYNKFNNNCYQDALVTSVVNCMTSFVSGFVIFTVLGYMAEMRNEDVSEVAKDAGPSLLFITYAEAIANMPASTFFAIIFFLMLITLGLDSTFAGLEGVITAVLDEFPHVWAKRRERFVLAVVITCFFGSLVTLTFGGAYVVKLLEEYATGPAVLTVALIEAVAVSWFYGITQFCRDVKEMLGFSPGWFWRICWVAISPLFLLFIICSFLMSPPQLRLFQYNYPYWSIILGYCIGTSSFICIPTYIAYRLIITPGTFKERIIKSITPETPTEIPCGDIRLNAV
Data set [7] is described as follows: Volume of distribution in male Beagle dog at 2 mg/kg, iv. Conditions: in vivo. The format is ADME, organism-based, Canis lupus familiaris.
The nature of data set [8]: Oral bioavailability in male Beagle dog at 15 mg/kg. The data set is classed as ADME, organism-based, Canis lupus familiaris. The settings on record: in vivo.
Data set [9] can be described thus: Stability in human hepatocytes. The data set is classed as ADME, cell-based, Hepatocyte.
Data set [10] concerns the target 5-hydroxytryptamine receptor 2B (Homo sapiens) (UniProt P41595). Kind of data set: Inhibition of 5-HT2B receptor (unknown origin) at 10 uM by CEREP analysis relative to control.
Data set [11] has as its target T1, Alpha-2A adrenergic receptor (Homo sapiens) (UniProt P08913).
T1 sequence (whole entry): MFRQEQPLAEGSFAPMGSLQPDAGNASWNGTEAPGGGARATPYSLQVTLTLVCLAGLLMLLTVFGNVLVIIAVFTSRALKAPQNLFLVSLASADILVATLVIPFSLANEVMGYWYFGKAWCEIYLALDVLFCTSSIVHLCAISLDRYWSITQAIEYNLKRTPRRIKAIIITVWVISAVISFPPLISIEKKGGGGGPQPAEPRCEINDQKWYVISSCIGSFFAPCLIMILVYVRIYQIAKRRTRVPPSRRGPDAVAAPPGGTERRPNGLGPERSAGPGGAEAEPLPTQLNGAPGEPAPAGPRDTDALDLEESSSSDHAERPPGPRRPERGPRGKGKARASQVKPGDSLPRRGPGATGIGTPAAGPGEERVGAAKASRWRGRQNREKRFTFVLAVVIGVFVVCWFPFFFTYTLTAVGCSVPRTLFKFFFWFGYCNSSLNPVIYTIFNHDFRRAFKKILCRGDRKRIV
Kind of data set: Inhibition of alpha 2A adrenergic receptor (unknown origin) at 10 uM by CEREP analysis relative to control.

Data set [12] in a line: AUClast in male Beagle dog at 15 mg/kg, po. The format is ADME, organism-based, Canis lupus familiaris. The settings on record: in vivo.
Data set [13] can be described thus: Oral bioavailability in male Sprague-Dawley rat at 30 mg/kg. The format is ADME, organism-based. Conditions: in vivo.
Data set [14] in a line: Half life in female Balb/c mouse at 5 mg/kg, iv. The data set is classed as ADME, organism-based. The settings on record: in vivo.
A short description of data set [15]: AUClast in Balb/c mouse at 10 mg/kg, po. The format is ADME, organism-based. Conditions: in vivo.
The next data set deals with L-type calcium channel (Homo sapiens, UniProt O60840+Q01668+Q13698+Q13936). Nature of the data set: Inhibition of Calcium channel L-type (unknown origin) at 10 uM by CEREP analysis relative to control. The format is protein assay.
Data set [16] is described as follows: Kinetic solubility of compound at pH 4.5. The data set is classed as physicochemical. The settings on record: buffer, read-out: Kinetic_solubility.
The nature of data set [17]: Stability in rat hepatocytes measured for 175 mins. The data set is classed as ADME, cell-based, Hepatocyte. Conditions: 2.917 h.
Data set [18] in a line: Clearance in male Sprague-Dawley rat at 3 mg/kg, iv. The data set is classed as ADME, organism-based. Conditions: in vivo.
Data set [19] is described as follows: Volume of distribution in male Sprague-Dawley rat at 3 mg/kg, iv. The format is ADME, organism-based. Conditions: in vivo.
Data set [20] can be described thus: Half life in male Sprague-Dawley rat at 3 mg/kg, iv. The data set is classed as ADME, organism-based. The settings on record: in vivo.
Data set [21] is described as follows: Half life in male Beagle dog at 2 mg/kg, iv. The format is ADME, organism-based, Canis lupus familiaris. The settings on record: in vivo.
Data set [22] can be described thus: Oral bioavailability in male Beagle dog at 30 mg/kg. The format is ADME, organism-based, Canis lupus familiaris. The settings on record: in vivo.
A short description of data set [23]: Clearance in male Beagle dog at 2 mg/kg, iv. The settings on record: in vivo. The format is ADME, organism-based, Canis lupus familiaris.
Data set [24] in a line: Kinetic solubility of compound at pH 2. The format is physicochemical. The settings on record: buffer, read-out: Kinetic_solubility.
A short description of data set [25]: Dose-normalized AUC in male Beagle dog at 15 mg/kg, po. The format is ADME, organism-based, Canis lupus familiaris. Conditions: in vivo.
The target in data set [26] is cGMP-inhibited 3',5'-cyclic phosphodiesterase 3A (Homo sapiens) (UniProt Q14432). Kind of data set: Inhibition of PDE3A (unknown origin) at 10 uM by CEREP analysis relative to control.
cGMP-inhibited 3',5'-cyclic phosphodiesterase 3A (Homo sapiens), sequence (Q14432 whole entry): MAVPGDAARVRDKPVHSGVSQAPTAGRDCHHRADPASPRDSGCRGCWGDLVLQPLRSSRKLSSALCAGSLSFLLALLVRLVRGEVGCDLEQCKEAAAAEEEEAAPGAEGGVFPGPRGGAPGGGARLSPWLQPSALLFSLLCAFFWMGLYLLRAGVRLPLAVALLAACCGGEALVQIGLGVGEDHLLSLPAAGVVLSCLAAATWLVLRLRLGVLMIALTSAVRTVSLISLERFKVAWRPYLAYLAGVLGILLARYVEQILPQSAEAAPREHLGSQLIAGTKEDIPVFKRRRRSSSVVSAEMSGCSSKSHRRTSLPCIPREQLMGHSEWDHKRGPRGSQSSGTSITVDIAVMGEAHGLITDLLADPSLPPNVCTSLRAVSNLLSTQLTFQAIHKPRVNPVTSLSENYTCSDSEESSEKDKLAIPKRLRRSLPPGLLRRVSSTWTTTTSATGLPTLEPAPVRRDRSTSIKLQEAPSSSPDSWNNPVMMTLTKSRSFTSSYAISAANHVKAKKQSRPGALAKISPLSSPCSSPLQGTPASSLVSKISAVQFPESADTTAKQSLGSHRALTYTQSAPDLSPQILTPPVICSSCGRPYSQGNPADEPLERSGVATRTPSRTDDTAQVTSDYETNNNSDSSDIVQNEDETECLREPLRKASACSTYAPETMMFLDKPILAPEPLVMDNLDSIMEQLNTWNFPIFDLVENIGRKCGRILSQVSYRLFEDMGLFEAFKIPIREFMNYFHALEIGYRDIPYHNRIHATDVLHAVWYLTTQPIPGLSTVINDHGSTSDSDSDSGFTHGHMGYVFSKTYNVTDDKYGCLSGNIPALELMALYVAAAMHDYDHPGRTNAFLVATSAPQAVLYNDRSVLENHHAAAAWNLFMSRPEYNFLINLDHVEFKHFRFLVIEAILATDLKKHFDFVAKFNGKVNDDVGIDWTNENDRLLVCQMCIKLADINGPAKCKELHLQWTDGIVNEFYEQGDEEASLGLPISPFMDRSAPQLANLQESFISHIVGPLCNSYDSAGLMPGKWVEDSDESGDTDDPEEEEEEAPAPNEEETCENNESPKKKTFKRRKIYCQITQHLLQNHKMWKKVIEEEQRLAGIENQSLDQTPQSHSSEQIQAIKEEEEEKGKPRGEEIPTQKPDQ
The nature of data set [27]: Clearance in female Balb/c mouse at 5 mg/kg, iv. The format is ADME, organism-based. The settings on record: in vivo.
The next data set is filed under the species Homo sapiens. Kind of data set: Inhibition of sodium channel site 2 (unknown origin) at 10 uM by CEREP analysis relative to control.
The test system of data set [28] is BaF3. Nature of the data set: cells. The settings on record: Mus musculus, BaF3, 72 h.
The nature of data set [29]: Oral bioavailability in male Sprague-Dawley rat at 10 mg/kg. Conditions: in vivo. The format is ADME, organism-based.
In the next data set the target is hERG (Homo sapiens, UniProt Q12809). Nature of the data set: Inhibition of hERG at 10 uM by CEREP analysis relative to control. The format is toxicity. (In general: Block of hERG is tested as a sign of cardiac risk.)
hERG, sequence (Q12809 whole entry): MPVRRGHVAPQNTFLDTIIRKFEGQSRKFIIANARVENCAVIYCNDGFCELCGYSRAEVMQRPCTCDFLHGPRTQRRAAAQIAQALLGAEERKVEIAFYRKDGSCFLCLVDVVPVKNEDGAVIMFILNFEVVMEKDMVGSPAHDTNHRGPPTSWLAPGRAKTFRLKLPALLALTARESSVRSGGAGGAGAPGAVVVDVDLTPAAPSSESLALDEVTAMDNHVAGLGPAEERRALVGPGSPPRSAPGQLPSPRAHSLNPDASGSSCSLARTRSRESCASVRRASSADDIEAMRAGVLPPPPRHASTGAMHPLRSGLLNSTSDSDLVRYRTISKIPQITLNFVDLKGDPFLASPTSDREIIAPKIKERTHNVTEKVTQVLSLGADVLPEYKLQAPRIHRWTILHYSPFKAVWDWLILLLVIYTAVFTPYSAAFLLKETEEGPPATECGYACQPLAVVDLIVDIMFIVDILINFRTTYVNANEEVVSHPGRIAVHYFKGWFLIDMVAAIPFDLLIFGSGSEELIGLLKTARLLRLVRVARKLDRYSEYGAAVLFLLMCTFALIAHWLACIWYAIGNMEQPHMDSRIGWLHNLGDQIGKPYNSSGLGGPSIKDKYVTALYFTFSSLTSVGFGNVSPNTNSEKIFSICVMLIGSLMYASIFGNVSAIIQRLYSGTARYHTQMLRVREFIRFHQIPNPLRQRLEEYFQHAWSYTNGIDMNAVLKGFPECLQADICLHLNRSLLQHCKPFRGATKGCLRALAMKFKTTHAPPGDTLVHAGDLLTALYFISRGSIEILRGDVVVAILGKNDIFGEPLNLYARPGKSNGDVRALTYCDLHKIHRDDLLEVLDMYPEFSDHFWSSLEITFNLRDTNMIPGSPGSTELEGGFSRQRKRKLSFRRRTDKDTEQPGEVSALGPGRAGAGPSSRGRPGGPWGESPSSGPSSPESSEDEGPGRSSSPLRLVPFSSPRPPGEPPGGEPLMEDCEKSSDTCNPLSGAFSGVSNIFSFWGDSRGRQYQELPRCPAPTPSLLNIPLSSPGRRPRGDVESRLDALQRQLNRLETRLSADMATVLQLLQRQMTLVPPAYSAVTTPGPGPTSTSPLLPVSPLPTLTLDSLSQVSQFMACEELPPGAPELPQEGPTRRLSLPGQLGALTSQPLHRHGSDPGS
A short description of a further data set: cells. The settings on record: Mus musculus, BaF3/TRP-Met, 72 h.
A short description of data set [30]: Stability in dog hepatocytes. The data set is classed as ADME, cell-based, Canis lupus familiaris, Hepatocyte.
Data set [31] can be described thus: Volume of distribution in female Balb/c mouse at 5 mg/kg, iv. Conditions: in vivo. The data set is classed as ADME, organism-based.
Data set [32] in a line: Dose-normalized AUC in male Sprague-Dawley rat at 10 mg/kg, po. The format is ADME, organism-based. Conditions: in vivo.
A short description of data set [33]: Dose-normalized AUC in female Balb/c mouse at 10 mg/kg, po. The data set is classed as ADME, organism-based. Conditions: in vivo.
The nature of data set [34]: Oral bioavailability in female Balb/c mouse at 30 mg/kg. The data set is classed as ADME, organism-based. Conditions: in vivo.
Data set [35] in a line: AUClast in male Sprague-Dawley rat at 10 mg/kg, po. The format is ADME, organism-based. Conditions: in vivo.
Data set [36] relates to BaF3. Nature of the data set: Antitumor activity against mouse BaF3 cells harboring TPR-D1228N mutant cells allografted in athymic BALB/c nude mouse at 10 mg/kg, po bid treated for 10 days relative to control. The data set is classed as functional. The settings on record: BaF3, 240 h, time 10 day, read-out: TGI.

3',5'-cyclic-AMP phosphodiesterase 4D (Homo sapiens), sequence (Q08499 whole entry): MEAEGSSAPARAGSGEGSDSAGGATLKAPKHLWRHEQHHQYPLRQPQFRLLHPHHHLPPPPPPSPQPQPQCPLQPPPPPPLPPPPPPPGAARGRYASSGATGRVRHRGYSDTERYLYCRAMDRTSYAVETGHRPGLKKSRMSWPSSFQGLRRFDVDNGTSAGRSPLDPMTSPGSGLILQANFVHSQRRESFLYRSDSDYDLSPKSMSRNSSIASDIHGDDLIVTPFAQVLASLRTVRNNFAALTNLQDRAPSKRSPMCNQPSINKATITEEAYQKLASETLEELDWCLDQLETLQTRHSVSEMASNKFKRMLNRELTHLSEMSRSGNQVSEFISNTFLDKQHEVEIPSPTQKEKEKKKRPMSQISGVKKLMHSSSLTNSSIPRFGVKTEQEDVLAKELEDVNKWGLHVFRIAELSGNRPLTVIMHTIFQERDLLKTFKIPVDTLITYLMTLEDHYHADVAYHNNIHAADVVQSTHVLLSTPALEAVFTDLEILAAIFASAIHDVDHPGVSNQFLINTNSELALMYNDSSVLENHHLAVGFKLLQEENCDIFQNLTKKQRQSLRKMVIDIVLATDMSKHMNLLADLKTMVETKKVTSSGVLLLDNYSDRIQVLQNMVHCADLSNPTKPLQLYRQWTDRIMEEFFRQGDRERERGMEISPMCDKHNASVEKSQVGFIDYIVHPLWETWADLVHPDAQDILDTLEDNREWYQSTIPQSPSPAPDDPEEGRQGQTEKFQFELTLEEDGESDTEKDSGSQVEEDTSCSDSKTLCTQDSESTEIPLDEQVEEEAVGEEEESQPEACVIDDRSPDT
5-hydroxytryptamine receptor 1B (Homo sapiens), sequence (P28222 whole entry): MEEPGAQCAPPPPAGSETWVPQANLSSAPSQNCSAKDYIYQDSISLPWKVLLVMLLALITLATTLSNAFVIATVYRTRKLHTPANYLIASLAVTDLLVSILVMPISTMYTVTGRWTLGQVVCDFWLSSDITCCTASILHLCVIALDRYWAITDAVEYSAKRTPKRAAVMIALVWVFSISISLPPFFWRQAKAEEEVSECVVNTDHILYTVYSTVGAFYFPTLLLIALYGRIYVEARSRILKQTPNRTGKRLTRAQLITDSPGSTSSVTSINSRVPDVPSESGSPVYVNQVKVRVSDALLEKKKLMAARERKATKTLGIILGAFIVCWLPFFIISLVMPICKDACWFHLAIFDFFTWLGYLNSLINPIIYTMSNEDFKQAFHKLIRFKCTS
5-hydroxytryptamine receptor 2B (Homo sapiens), sequence (P41595 whole entry): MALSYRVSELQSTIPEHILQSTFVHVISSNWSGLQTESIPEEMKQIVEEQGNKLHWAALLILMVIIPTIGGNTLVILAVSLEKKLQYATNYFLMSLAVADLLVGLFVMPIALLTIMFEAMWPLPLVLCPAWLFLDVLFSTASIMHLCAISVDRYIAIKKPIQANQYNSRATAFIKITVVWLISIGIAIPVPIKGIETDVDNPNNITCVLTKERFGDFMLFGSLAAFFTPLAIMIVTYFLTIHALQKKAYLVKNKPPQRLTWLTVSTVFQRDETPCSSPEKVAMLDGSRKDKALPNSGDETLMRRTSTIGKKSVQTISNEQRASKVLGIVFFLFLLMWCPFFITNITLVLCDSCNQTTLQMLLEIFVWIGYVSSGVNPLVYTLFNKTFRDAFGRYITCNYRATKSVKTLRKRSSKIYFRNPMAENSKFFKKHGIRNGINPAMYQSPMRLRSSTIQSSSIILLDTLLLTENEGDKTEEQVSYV

As for `COc1cc2nccc(Oc3c(F)cc(NC(=O)c4cnccc4OC)cc3F)c2cc1OCCO`, the bioavailability in data set [1] came out at 20%; in [8], 18%; in data set [13], 34%; in [22] it was 8%; in data set [29], 61%; in data set [34] it was 13%. Further, the inhibition in data set [2] worked out at 16%; in data set [4], 31%; in data set [6], 10%; in data set [10], 16%; in data set [11], 11%; in [26] it was 34%. Moreover, the inhibition in the data set filed under Homo sapiens came to 25%. Besides, the Stability entry in [3], in [5], in data set [9], in data set [17] and in data set [30] was “Stable” in each case. The Vd in [7] amounted to 2.25 L/kg; in data set [19] it was 0.68 L/kg; in data set [31], 0.38 L/kg. For the same compound, the AUC(0-t) in data set [12] came out at 7170 ng·h/mL; in data set [15] it was 8220 ng·h/mL; in data set [35], 28200 ng·h/mL. In addition, the half-life in data set [14] is 2.1 h; in [20] it was 3 h; in [21], 7.1 h. In addition, the figures for the inhibition at 10 µM on L-type calcium channel and at hERG were 6% and 8%, respectively. The figures for the solubility kinetic in [16] and in [24] were 12.7 µM (≈ 6.32 µg/mL) and 279 µM (≈ 139 µg/mL), respectively. The clearance in data set [18] is 4.8 mL/min/kg; in [23] it was 6.7 mL/min/kg; in [27] it was 4.11 mL/min/kg. In addition, the AUC/dose came out at 464 ng.h/mL per mg/kg in data set [25], 2040 ng.h/mL per mg/kg in data set [32] and 822 ng.h/mL per mg/kg in data set [33]. For the same compound, the EC50 in the data set with BaF3 [28] worked out at 0.04 µM; in “cells” it was 0.064 µM.

As to `CNC(=O)c1ccc(-c2cnc3ncc(Cc4ccc5ncccc5c4)n3n2)cc1F` [CAPMATINIB], in the data set on BaF3 [36], the inhibition in vivo at 10 mg/kg is 17%. The values for the solubility kinetic in data set [16] and in data set [24] were 17.5 µM (≈ 7.22 µg/mL) and 279 µM (≈ 115 µg/mL), respectively.

As a reminder, the bioavailability is dose-corrected exposure relative to a reference, in per cent. As usually defined, the inhibition is the change of the read-out against control, counted positive when it falls. By Vd is commonly meant a proportionality between amount in the body and measured concentration, not a real space. Broadly, the AUC(0-t) is the area under the concentration-time curve up to a stated or last time point. The term half-life denotes the time in which the quantity being followed falls by half. Usually clearance stands for the rate of elimination divided by the concentration. A word on the EC50: it is the concentration giving half of the maximal effect.

Source of the values: ChEMBL document CHEMBL6182925 (J Med Chem, 2025).
